experiment: Partition coefficient (logP); format: physicochemical; conditions: octanol/water

| logP | Structure (SMILES) |
| --- | --- |
| 5.79 | CC(C)C(CC(=O)OC[C@H](CO)OC(=O)CC(C(C)C)C(C)C)C(C)C |
| 2.16 | CC(C)CC(=O)OC[C@H](CO)OC(=O)CC(C)C |
| 3.97 | CC(C)CC(=O)OC[C@H](CO)OC(=O)CC(C(C)C)C(C)C |
| 2.07 | CC(C)=CC(=O)OC[C@H](CO)OC(=O)CC(C)C |
| 3.97 | CC(C)CC(=O)O[C@@H](CO)COC(=O)CC(C(C)C)C(C)C |
| 5.71 | CC(C)C(=CC(=O)OC[C@H](CO)OC(=O)CC(C(C)C)C(C)C)C(C)C |
| 5.62 | CC(C)C(=CC(=O)OC[C@H](CO)OC(=O)C=C(C(C)C)C(C)C)C(C)C |
| 5.71 | CC(C)C(=CC(=O)O[C@@H](CO)COC(=O)CC(C(C)C)C(C)C)C(C)C |
| 3.88 | CC(C)=CC(=O)O[C@@H](CO)COC(=O)CC(C(C)C)C(C)C |
| 3.89 | CC(C)CC(=O)OC[C@H](CO)OC(=O)C=C(C(C)C)C(C)C |
| 5.3 | CCCCCCCC(=O)OC[C@H](CO)OC(=O)CCCCCCC |
| 3.89 | CC(C)CC(=O)O[C@@H](CO)COC(=O)C=C(C(C)C)C(C)C |
| 3.8 | CC(C)=CC(=O)O[C@@H](CO)COC(=O)C=C(C(C)C)C(C)C |
| 1.99 | CC(C)=CC(=O)OC[C@H](CO)OC(=O)C=C(C)C |
| 2.07 | CC(C)=CC(=O)O[C@@H](CO)COC(=O)CC(C)C |
| 3.88 | CC(C)=CC(=O)OC[C@H](CO)OC(=O)CC(C(C)C)C(C)C |
| 3.8 | CC(C)=CC(=O)OC[C@H](CO)OC(=O)C=C(C(C)C)C(C)C |
| 7 | CCCCCCCC/C=C/CCCCCCCC(=O)OC[C@H](CO)OC(C)=O |

| Structure (SMILES) | logP |
| --- | --- |
| CCCC(=O)O[C@@H]1[C@@H](C)[C@@]2(O)[C@@H](C=C(CO)C[C@]3(O)C(=O)C(C)=C[C@@H]23)[C@@H]2C(C)(C)[C@]12OC(=O)CCC | 3.4 |
| CC(=O)O[C@@]12C[C@@H](C)[C@@]3(O)[C@@H](C=C(CO)C[C@]4(O)C(=O)C(C)=C[C@@H]34)[C@@H]1C2(C)C [PROSTRATIN] | 1.9 |

Reference: ChEMBL document CHEMBL1134496, “An optimized protein kinase C activating diacylglycerol combining high binding affinity (Ki) with reduced lipophilicity (log P)” (J Med Chem, 2001)
